Legend:
Zea mays [1] = assay: Pre-emergence herbicidal effect and crop plant compatibility; type: in vivo; conditions: 3 weeks
Excerpt: (§1) Seeds of monocotyledonous and dicotyledonous weed plants and crop plants are laid out in wood-fiber pots in sandy loam and covered with soil. The compounds of the invention, formulated in the form of wettable powders (WP) or as emulsion concentrates (EC), are then applied to the surface of the covering soil as aqueous suspension or emulsion at a water application rate equating to 600 to 800 L/ha with addition of 0.2% wetting agent.
(§2) After the treatment, the pots are placed in a greenhouse and kept under good growth conditions for the trial plants. The damage to the trial plants is scored visually after a trial duration of 3 weeks by comparison with untreated controls (herbicidal activity in percent (%): 100% efficacy=the plants have died, 0% efficacy=like control plants).

[2] = system: Triticum aestivum (spring); assay: as above; type: in vivo; conditions: 3 weeks
Excerpt: as §1, §2

Oryza sativa [3] = assay: as above; type: in vivo; conditions: 3 weeks
Excerpt: as §1, §2

Setaria viridis = assay: Pre-emergence herbicidal effect; type: in vivo; conditions: 320 g/ha, 3 weeks
Excerpt: as §1, §2

Viola tricolor = assay: Pre-emergence herbicidal effect; type: in vivo; conditions: 3 weeks
Excerpt: as §1, §2

Veronica persica = assay: Pre-emergence herbicidal effect; type: in vivo; conditions: 3 weeks
Excerpt: as §1, §2

Matricaria inodora = assay: Pre-emergence herbicidal effect; type: in vivo; conditions: 3 weeks
Excerpt: as §1, §2

Amaranthus retroflexus = assay: Pre-emergence herbicidal effect; type: in vivo; conditions: 3 weeks
Excerpt: as §1, §2

Stellaria media = assay: Pre-emergence herbicidal effect; type: in vivo; conditions: 3 weeks
Excerpt: as §1, §2

Echinochloa crus-galli = assay: Pre-emergence herbicidal effect; type: in vivo; conditions: 3 weeks
Excerpt: as §1, §2

Zea mays [4] = assay: Post-emergence herbicidal effect and crop plant compatibility; type: in vivo; conditions: visual scoring after about 3 weeks
Description: (§3) Seeds of monocotyledonous and dicotyledonous weed and crop plants are laid out in sandy loam in wood-fiber pots, covered with soil and cultivated in a greenhouse under good growth conditions. 2 to 3 weeks after sowing, the test plants are treated at the one-leaf stage. The compounds of the invention, formulated in the form of wettable powders (WP) or as emulsion concentrates (EC), are then sprayed onto the green parts of the plants as aqueous suspension or emulsion at a water application rate equating to 600 to 800 L/ha with addition of 0.2% wetting agent. After the trial plants have been left to stand in a greenhouse under optimal growth conditions for about 3 weeks, the efficacy of the formulations is scored visually in comparison to untreated controls (herbicidal action in percent (%): 100% efficacy=the plants have died, 0% efficacy=like control plants).

[5] = system: Triticum aestivum (spring); assay: as above; type: in vivo; conditions: visual scoring after about 3 weeks
Description: as §3

Oryza sativa [6] = assay: as above; type: in vivo; conditions: visual scoring after about 3 weeks
Description: as §3

[7] = logp (HCOOH), physicochemical characterization; conditions: for chromatographic logP: HCOOH (formic acid)
Polygonum convolvulus = assay: Pre-emergence herbicidal effect; type: in vivo; conditions: 3 weeks
Excerpt: as §1, §2

Alopecurus myosuroides = assay: Pre-emergence herbicidal effect; type: in vivo; conditions: 3 weeks
Excerpt: as §1, §2

Lolium multiflorum = assay: Pre-emergence herbicidal effect; type: in vivo; conditions: 320 g/ha, 3 weeks
Excerpt: as §1, §2

Row | Compound | ZEAMX herbicidal activity in percent (Zea mays [1]; 80 g/ha) | ZEAMX herbicidal activity in percent (Zea mays [1]; 320 g/ha) | TRZAS herbicidal activity in percent ([2]; 80 g/ha) | TRZAS herbicidal activity in percent ([2]; 320 g/ha) | ORYSA herbicidal activity in percent (Oryza sativa [3]; 80 g/ha) | ORYSA herbicidal activity in percent (Oryza sativa [3]; 320 g/ha) | SETVI herbicidal activity in percent (Setaria viridis) | VIOTR herbicidal activity in percent (Viola tricolor; 80 g/ha) | VIOTR herbicidal activity in percent (Viola tricolor; 320 g/ha) | VERPE herbicidal activity in percent (Veronica persica; 80 g/ha) | VERPE herbicidal activity in percent (Veronica persica; 320 g/ha) | MATIN herbicidal activity in percent (Matricaria inodora; 320 g/ha) | AMARE herbicidal activity in percent (Amaranthus retroflexus; 80 g/ha) | AMARE herbicidal activity in percent (Amaranthus retroflexus; 320 g/ha) | STEME herbicidal activity in percent (Stellaria media; 320 g/ha) | ECHCG herbicidal activity in percent (Echinochloa crus-galli; 320 g/ha) | post-emergence efficacy ZEAMX (Zea mays [4]; 80 g/ha) | post-emergence efficacy ZEAMX (Zea mays [4]; 320 g/ha) | post-emergence efficacy TRZAS ([5]; 320 g/ha) | MATIN herbicidal activity in percent (Matricaria inodora; 80 g/ha) | other results
1 | O=C1CC(c2ccc(F)cc2)Cc2nc(N[C@@H]3CCCc4ccccc43)ncc21 (some centres unmarked) [2.92] | 0% | 20% | 0% | 20% | 0% | 20% | 100% | 90% | 100% | 100% | 100% | 90% | 80% | 100% | 100% | 100% | 0% | 0% | 10% |  | STEME herbicidal activity in percent (Stellaria media; 80 g/ha): 100%; post-emergence efficacy TRZAS ([5]; 80 g/ha): 0%; post-emergence efficacy ORYSA (Oryza sativa [6]; 80 g/ha): 0%; post-emergence efficacy ORYSA (Oryza sativa [6]; 320 g/ha): 0%; logp (HCOOH) [7]: oily; logp (HCOOH): 4.05; 1H-NMR (CDCl3, 400 MHZ, δ in ppm): 1.95 (m, 3H, 2H
2 | CC(=O)c1cnc(N[C@@H]2CCCc3cc(F)ccc32)nc1C [1.88] | 0% | 0% | 0% | 0% | 0% |  |  |  | 90% | 100% | 100% | 100% | 80% | 100% | 100% |  | 0% | 10% | 20% | 100% | post-emergence efficacy TRZAS ([5]; 80 g/ha): 0%; post-emergence efficacy ORYSA (Oryza sativa [6]; 80 g/ha): 0%; post-emergence efficacy ORYSA (Oryza sativa [6]; 320 g/ha): 0%
3 | CC(=O)c1cnc(N[C@@H]2CCCc3ccccc32)nc1 [1.3, 1-{2-[(1R)-1,2,3,4-tetrahydronaphthalen-1-ylamino]pyrimidin-5-yl}ethanone] | 20% |  | 20% | 20% | 20% |  | 80% |  |  | 100% | 100% | 100% | 100% | 100% | 90% | 100% |  |  |  | 90% | ECHCG herbicidal activity in percent (Echinochloa crus-galli; 80 g/ha): 80%; POLCO herbicidal activity in percent (Polygonum convolvulus; 80 g/ha): 80%; POLCO herbicidal activity in percent (Polygonum convolvulus; 320 g/ha): 100%; chromatographic logP [7]: 2.51
4 | CC(=O)c1cnc(NC2CCOc3c(C)cccc32)nc1 (racemic) [1.8] | 0% | 0% | 0% | 0% |  |  | 80% |  | 100% |  | 100% | 100% | 100% | 100% |  | 90% |  |  |  |  | ALOMY herbicidal activity in percent (Alopecurus myosuroides; 80 g/ha): 0%; ALOMY herbicidal activity in percent (Alopecurus myosuroides; 320 g/ha): 0%
5 | Cc1ccc2c(c1)[C@H](Nc1ncc3c(n1)CC(C(C)C)CC3=O)[C@@H](C)C2 (some centres unmarked) [2.104] | 0% | 0% | 0% |  | 20% | 20% | 100% | 90% | 100% | 100% | 100% | 100% |  | 100% | 100% |  | 0% | 0% | 0% | 80% | LOLMU herbicidal activity in percent (Lolium multiflorum): 90%; STEME herbicidal activity in percent (Stellaria media; 80 g/ha): 100%; POLCO herbicidal activity in percent (Polygonum convolvulus; 320 g/ha): 100%; post-emergence efficacy TRZAS ([5]; 80 g/ha): 0%; post-emergence efficacy ORYSA (Oryza sativa [6]; 80 g/ha): 0%; post-emergence efficacy ORYSA (Oryza sativa [6]; 320 g/ha): 0%
6 | CC(=O)c1cnc(N[C@@H]2CCCc3ccccc32)nc1C [1.82, 1-{4-methyl-2-[(1R)-1,2,3,4-tetrahydronaphthalen-1-ylamino]pyrimidin-5-yl}ethanone] | 0% |  | 0% | 0% | 0% | 3% |  | 100% | 100% | 100% | 100% | 90% | 90% | 90% | 100% |  |  |  | 0% | 90% | POLCO herbicidal activity in percent (Polygonum convolvulus; 320 g/ha): 80%; chromatographic logP [7]: 3.03
